Laboratory results taken from US9617244B2, “Antibacterial quinoline derivatives” (JANSSEN PHARMACEUTICA NV, priority 2012, dated 2017).
In brackets after ≈: the same amount, converted by molar mass.

Legend:
[1] = tested on: Staphylococcus aureus (ATCC29213); test: In-vitro anti-bacterial activity, microtitre plate assay, IC90 determination (non-mycobacterial strains); format: cell-based; conditions: 90% inhibitory concentration for bacterial growth, resazurin fluorescence; for IC90 STA B29213: 24 hours; for IC90: Staphylococcus aureus, ATCC29213, 24 h, read-out: IC90 STA B29213
Protocol: D.2. In-Vitro Method for Testing Compounds for Anti-Bacterial Activity Against Various Non-Mycobacterial Strains
Preparation of Bacterial Suspensions for Susceptibility Testing:
The bacteria used in this study were grown overnight in flasks containing 100 ml Mueller-Hinton Broth (Becton Dickinson—cat. no. 275730) in sterile de-ionized water, with shaking, at 37° C. Stocks (0.5 ml/tube) were stored at −70° C. until use. Bacteria titrations were performed in microtiter plates to detect the TCID50, in which TCID50 represents the dilution that gives rise to bacterial growth in 50% of inoculated cultures. In general, an inoculum level of approximately 100 TCID50 was used for susceptibility testing.
Anti Bacterial Susceptibility Testing: IC90 Determination
Flat-bottom, sterile 96-well plastic microtiter plates were filled with 180 μl of sterile deionized water, supplemented with 0.25% BSA. Subsequently, stock solutions (7.8× final test concentration) of compounds were added in 45 μl volumes in column 2 Serial five-fold dilutions (45 μl in 180 μl) were made directly in the microtiter plates from column 2 to reach column 11. Untreated control samples with (column 1) and without (column 12) inoculum were included in each microtiter plate. Depending on the bacteria type, approximately 10 to 60 CFU per well of bacteria inoculum (100 TCID50), in a volume of 100 μl in 2.8× Mueller-Hinton broth medium, was added to the rows A to H, except column 12. The same volume of broth medium without inoculum was added to column 12 in row A to H. The cultures were incubated at 37° C. for 24 hours under a normal atmosphere (incubator with open air valve and continuous ventilation). At the end of incubation, one day after inoculation, the bacterial growth was quantitated fluorometrically. Therefore resazurin (0.6 mg/ml) was added in a volume of 20 μl to all wells 3 hours after inoculation, and the plates were re-incubated overnight. A change in colour from blue to pink indicated the growth of bacteria. The fluorescence was read in a computer-controlled fluorometer (Cytofluor Biosearch) at an excitation wavelength of 530 nm and an emission wavelength of 590 nm. The % growth inhibition achieved by the compounds was calculated according to standard methods. The IC90 (expressed in μg/ml) was defined as the 90% inhibitory concentration for bacterial growth.

[2] = tested on: Mycobacterium smegmatis (ATCC607); test: In-vitro anti-bacterial activity against strain M. Smegmatis ATCC607; format: cell-based; conditions: 90% inhibitory concentration for bacterial growth, Alamar Blue fluorescence; for IC90 MSM 607: 48 hours; for IC90: Mycolicibacterium smegmatis, ATCC607, 48 h, read-out: IC90 MSM 607
Protocol: D.1. In-Vitro Method for Testing Compounds for Anti-Bacterial Activity Against Strain M. Smegmatis ATCC607
Flat-bottom, sterile 96-well plastic microtiter plates were filled with 180 μl of sterile deionized water, supplemented with 0.25% BSA. Subsequently, stock solutions (7.8× final test concentration) of compounds were added in 45 μl volumes to a series of duplicate wells in column 2 so as to allow evaluation of their effects on bacterial growth. Serial five-fold dilutions (45 μl in 180 μl) were made directly in the microtiter plates from column 2 to 11 using a customised robot system (Zymark Corp., Hopkinton, Mass.). Pipette tips were changed after every 3 dilutions to minimize pipetting errors with high hydrophobic compounds. Untreated control samples with (column 1) and without (column 12) inoculum were included in each microtiter plate. Approximately 250 CFU per well of bacteria inoculum, in a volume of 100 μl in 2.8× Mueller-Hinton broth medium, was added to the rows A to H, except column 12. The same volume of broth medium without inoculum was added to column 12 in row A to H. The cultures were incubated at 37° C. for 48 hours in a humidified 5% CO2 atmosphere (incubator with open air valve and continuous ventilation). At the end of incubation, two days after inoculation, the bacterial growth was quantitated fluorometrically. Therefore Alamar Blue (10×) was added to all wells in a volume of 20 μl and plates were incubated for another 2 hours at […]
The fluorescence was read in a computer-controlled fluorometer (Cytofluor, Biosearch) at an excitation wavelength of 530 nm and an emission wavelength of 590 nm (gain 30). The percentage growth inhibition achieved by the compounds was calculated according to standard methods and expressed as IC90 (μg/ml) which defines the 90% inhibitory concentration for bacterial growth.

IC90 STA B29213 [1]	IC90 MSM 607 [2]	IC90 [2]	IC90 [1]	Structure (SMILES)
1.70 µg/mL (≈ 3.17 µM)	1.20 µg/mL (≈ 2.23 µM)			COc1nc2ccc(SC)cc2cc1C(c1cccc(Cl)c1)C1(O)CCNC(c2ccc(F)cc2C)C1 (stereo not shown) [Compound 163]
4.23 µg/mL (≈ 7.88 µM)	2.38 µg/mL (≈ 4.43 µM)			COc1nc2ccc(SC)cc2cc1C(c1cccc(Cl)c1)C1(O)CCNC(c2ccc(F)cc2C)C1 (stereo not shown) [Compound 164]
5.10 µg/mL (≈ 9.5 µM)	3.61 µg/mL (≈ 6.72 µM)			COc1nc2ccc(SC)cc2cc1C(c1cccc(Cl)c1)C1(O)CCNC(c2ccc(F)cc2C)C1 (stereo not shown) [Compound 165]
3.09 µg/mL (≈ 5.75 µM)	1.95 µg/mL (≈ 3.63 µM)			COc1nc2ccc(SC)cc2cc1C(c1cccc(Cl)c1)C1(O)CCNC(c2ccc(F)cc2C)C1 (stereo not shown) [Compound 166]
3.17 µg/mL (≈ 6.31 µM)	1.26 µg/mL (≈ 2.51 µM)			COc1nc2ccc(SC)cc2cc1C(c1ccccc1)C1(O)CCNC(c2ccc(F)cc2C)C1 (stereo not shown) [Compound 167]
4.96 µg/mL (≈ 9.87 µM)	3.94 µg/mL (≈ 7.84 µM)			COc1nc2ccc(SC)cc2cc1C(c1ccccc1)C1(O)CCNC(c2ccc(F)cc2C)C1 (stereo not shown) [Compound 169]
5.27 µg/mL (≈ 10.5 µM)	4.69 µg/mL (≈ 9.33 µM)			COc1nc2ccc(SC)cc2cc1C(c1ccccc1)C1(O)CCNC(c2ccc(F)cc2C)C1 (stereo not shown) [Compound 170]
2.86 µg/mL (≈ 5.02 µM)		3.2 µg/mL (≈ 5.62 µM)		COc1nc2ccc(Br)cc2cc1C(c1cccc(Cl)c1)C1(O)CCNC(c2ccc(F)cc2C)C1 (stereo not shown) [Compound 173]
1.76 µg/mL (≈ 3.36 µM)	2.78 µg/mL (≈ 5.31 µM)			CSc1ccc2[nH]c(=O)c(C(c3cccc(Cl)c3)C3(O)CCNC(c4ccc(F)cc4C)C3)cc2c1 (stereo not shown) [Compound 177]
8.69 µg/mL (≈ 17.8 µM)	6.15 µg/mL (≈ 12.6 µM)			CSc1ccc2[nH]c(=O)c(C(c3ccccc3)C3(O)CCNC(c4ccc(F)cc4C)C3)cc2c1 (stereo not shown) [Compound 179]
		6.6 µg/mL (≈ 13.5 µM)	6.6 µg/mL (≈ 13.5 µM)	CSc1ccc2nc(O)c(C(c3ccccc3)C3(O)CCNC(c4ccc(F)cc4C)C3)cc2c1 (stereo not shown) [Compound 182]
3.31 µg/mL (≈ 6.77 µM)	3.31 µg/mL (≈ 6.77 µM)			CSc1ccc2nc(O)c(C(c3ccccc3)C3(O)CCNC(c4ccc(F)cc4C)C3)cc2c1 (stereo not shown) [Compound 183]
2.20 µg/mL (≈ 3.96 µM)		2.77 µg/mL (≈ 4.99 µM)		COc1nc2ccc(SC)cc2cc1C(c1ccc(Cl)cc1)C1(O)CCNC(Cc2ccc(F)c(F)c2)C1 (stereo not shown) [Compound 188]
1.39 µg/mL (≈ 2.5 µM)	1.76 µg/mL (≈ 3.17 µM)			COc1nc2ccc(SC)cc2cc1C(c1ccc(Cl)cc1)C1(O)CCNC(Cc2ccc(F)c(F)c2)C1 (stereo not shown) [Compound 190]
7.00 µg/mL (≈ 13.4 µM)	13.96 µg/mL (≈ 26.8 µM)			Cc1cc(F)ccc1C1CC(O)(C(c2ccccc2)c2cc3cc(Br)ccc3[nH]c2=O)CCN1 (stereo not shown) [Compound 192]
3.17 µg/mL (≈ 6.31 µM)	2.52 µg/mL (≈ 5.01 µM)			COc1nc2ccc(SC)cc2cc1C(c1ccccc1)C1(O)CCNC(c2ccc(F)cc2C)C1 (stereo not shown) [Compound 196]
>19.28 µg/mL	>19.28 µg/mL			COc1nc2ccc(S(C)(=O)=O)cc2cc1C(c1ccc(Cl)cc1)C1(O)CCNC(c2ccc(F)cc2C)C1 (stereo not shown) [Compound 201]
3.63 µg/mL (≈ 6.71 µM)	7.23 µg/mL (≈ 13.4 µM)			CSc1ccc2[nH]c(=O)c(C(c3ccc(Cl)cc3)C3(O)CCNC(Cc4ccc(F)c(F)c4)C3)cc2c1 (stereo not shown) [Compound 204]
14.75 µg/mL (≈ 25.1 µM)	14.75 µg/mL (≈ 25.1 µM)			COc1nc2ccc(S(C)(=O)=O)cc2cc1C(c1ccc(Cl)cc1)C1(O)CCNC(Cc2ccc(F)c(F)c2)C1 (stereo not shown) [Compound 209]

IC90 STA B29213 [1]	IC90 MSM 607 [2]	IC90 [2]	IC90 [1]	Structure (SMILES)
1.86 µg/mL (≈ 3.17 µM)	2.94 µg/mL (≈ 5.01 µM)			COc1nc2ccc(S(C)(=O)=O)cc2cc1C(c1ccc(Cl)cc1)C1(O)CCNC(Cc2ccc(F)c(F)c2)C1 (stereo not shown) [Compound 210]
7.60 µg/mL (≈ 13.3 µM)	6.04 µg/mL (≈ 10.5 µM)			CS(=O)(=O)c1ccc2[nH]c(=O)c(C(c3ccc(Cl)cc3)C3(O)CCNC(Cc4ccc(F)c(F)c4)C3)cc2c1 (stereo not shown) [Compound 212]
>17.31 µg/mL	>17.31 µg/mL			CS(=O)(=O)c1ccc2[nH]c(=O)c(C(c3ccc(Cl)cc3)C3(O)CCNC(Cc4ccc(F)c(F)c4)C3)cc2c1 (stereo not shown) [Compound 213]
>17.57 µg/mL	>17.57 µg/mL			CS(=O)(=O)c1ccc2[nH]c(=O)c(C(c3ccc(Cl)cc3)C3(O)CCNC(Cc4ccc(F)c(F)c4)C3)cc2c1 (stereo not shown) [Compound 214]
13.66 µg/mL (≈ 23.8 µM)	17.19 µg/mL (≈ 30 µM)			CS(=O)(=O)c1ccc2[nH]c(=O)c(C(c3ccc(Cl)cc3)C3(O)CCNC(Cc4ccc(F)c(F)c4)C3)cc2c1 (stereo not shown) [Compound 215]
>14.80 µg/mL	>14.80 µg/mL			Cc1cc(F)ccc1C1CC(O)(C(c2ccc(Cl)cc2)c2cc3cc(S(C)(=O)=O)ccc3[nH]c2=O)CCN1 (stereo not shown) [Compound 220]
3.73 µg/mL (≈ 6.72 µM)	2.96 µg/mL (≈ 5.33 µM)			Cc1cc(F)ccc1C1CC(O)(C(c2ccc(Cl)cc2)c2cc3cc(S(C)(=O)=O)ccc3[nH]c2=O)CCN1 (stereo not shown) [Compound 221]
>14.78 µg/mL	>14.78 µg/mL			Cc1cc(F)ccc1C1CC(O)(C(c2ccc(Cl)cc2)c2cc3cc(S(C)(=O)=O)ccc3[nH]c2=O)CCN1 (stereo not shown) [Compound 222]
>14.83 µg/mL	>14.83 µg/mL			Cc1cc(F)ccc1C1CC(O)(C(c2ccc(Cl)cc2)c2cc3cc(S(C)(=O)=O)ccc3[nH]c2=O)CCN1 (stereo not shown) [Compound 223]
3.73 µg/mL (≈ 6.72 µM)	5.92 µg/mL (≈ 10.7 µM)			Cc1cc(F)ccc1C1CC(O)(C(c2ccc(Cl)cc2)c2cc3cc(S(C)(=O)=O)ccc3[nH]c2=O)CCN1 (stereo not shown) [Compound 224]
>14.77 µg/mL	>14.77 µg/mL			Cc1cc(F)ccc1C1CC(O)(C(c2ccc(Cl)cc2)c2cc3cc(S(C)(=O)=O)ccc3[nH]c2=O)CCN1 (stereo not shown) [Compound 225]
1.86 µg/mL (≈ 3.35 µM)	3.31 µg/mL (≈ 5.95 µM)			O=c1[nH]c2ccc(Br)cc2cc1C(c1ccc(Cl)cc1)C1(O)CCNCC1Cc1cccc(F)c1 (stereo not shown) [Compound 229]
1.67 µg/mL (≈ 3.4 µM)	1.18 µg/mL (≈ 2.4 µM)			CSc1ccc2[nH]c(=O)c(C(c3ccc(Cl)cc3)C3(O)CCNC(c4ccccc4)C3)cc2c1 (stereo not shown) [Compound 230]
3.30 µg/mL (≈ 6.72 µM)	2.62 µg/mL (≈ 5.34 µM)			CSc1ccc2[nH]c(=O)c(C(c3ccc(Cl)cc3)C3(O)CCNC(c4ccccc4)C3)cc2c1 (stereo not shown) [Compound 231]
6.65 µg/mL (≈ 13.5 µM)	5.93 µg/mL (≈ 12.1 µM)			CSc1ccc2[nH]c(=O)c(C(c3ccc(Cl)cc3)C3(O)CCNC(c4ccccc4)C3)cc2c1 (stereo not shown) [Compound 232]
1.67 µg/mL (≈ 3.4 µM)	1.32 µg/mL (≈ 2.69 µM)			CSc1ccc2[nH]c(=O)c(C(c3ccc(Cl)cc3)C3(O)CCNC(c4ccccc4)C3)cc2c1 (stereo not shown) [Compound 233]
5.24 µg/mL (≈ 10.7 µM)	3.71 µg/mL (≈ 7.56 µM)			CSc1ccc2[nH]c(=O)c(C(c3ccc(Cl)cc3)C3(O)CCNC(c4ccccc4)C3)cc2c1 (stereo not shown) [Compound 234]
4.17 µg/mL (≈ 8.49 µM)	6.60 µg/mL (≈ 13.4 µM)			CSc1ccc2[nH]c(=O)c(C(c3ccc(Cl)cc3)C3(O)CCNC(c4ccccc4)C3)cc2c1 (stereo not shown) [Compound 235]
		7.26 µg/mL (≈ 14 µM)	10.3 µg/mL (≈ 19.7 µM)	Cc1cc(F)ccc1C1CC(O)(C(c2ccccc2)c2cc3cc(-c4cccnc4)ccc3[nH]c2=O)CCN1 (stereo not shown) [Compound 236]
